Source: patent US5216024A, “Cell growth inhibitors and methods of treating cancer and cell proliferative diseases” (Baylor College of Medicine, priority 1988, dated 1993)
“Also recorded” adds a separate entry of the source. Like-named read-outs stand apart in the source and are kept apart here.

How the values were obtained:
[1] = tested on: MCF-7 human breast cancer cells; conditions: general knowledge statement; cited from earlier work
[2] = tested on: estradiol stimulation of uterine growth (rat uterus); conditions: background statement; cited from earlier work
[3] = biological target: nuclear Type II estrogen binding sites; test: Inhibition assay: [3H]estradiol binding to nuclear Type II sites (uterine nuclei from estrogen-implanted ovariectomized rats); design: species or system rat; conditions: for IC50: Table I, read-out: TYPE II INHIBITION: concentration (nM) times 10^-2 to inhibit nuclear Type II binding sites by 50%
Description: Tissue was dissected from host animals, weighed, rinsed in saline, and homogenized in 10 mM Tris-1.5 mM EDTA, by approximately four 30-sec bursts in a Sorval Omnimixer with intermittent cooling for about 5 min. This crude homogenate was transferred to a Kontes ground glass homogenizer and further homogenized with intermittent cooling until no tissue aggregates were visible. It was imperative that the homogenate be kept cold, about 4° C. through all homogenization steps. The final homogenate was centrifuged at 800×g for approximately 20 min to obtain the crude nuclear pellet, which was then washed by gentle resuspension in a Dounce homogenizer and then centrifuged at 800×g for approximately 7 min. The final washed nuclear pellet was resuspended in 10 mM Tris-1.5 mM EDTA in a concentration ranging from 5 to 50 mg of fresh tissue equivalents/ml. By the term "fresh tissue equivalent" is meant the amount of material which represents the initial concentration in the fresh uterine tissue.
To assess total and nonspecific binding, aliquots of the nuclear suspension were incubated at 37° C. for 30 min with various concentrations ranging from 2 to 40 nM of [^3 H]estradiol with and without a large molar excess of diethylstilbestrol. The diethylstibestrol concentration ranged from 0.6 to 12.0 μM. Following incubation, the nuclear pellets were resuspended in about 1 ml of 10 mM Tris-1.5 mM EDTA buffer and centrifuged at 800×g for about 7 min. The pellet was extracted with 1 ml of ethanol at about 30° C. for about 30 min, and counted in 4 ml of Liquifluor. Specific binding was determined by substraction of nonspecific binding; i.e., not competable by diethylstilbestrol from the total quantity of [^3 H]estradiol bound. Results were expressed as sites/cell, assuming 8 pg of DNA/cell nucleus and that each binding site binds one molecule of [^3 H]estradiol.
In order to assess the levels of this inhibitor activity in various tissue cytosols and LH-20 column chromatography fractions from these cytosols, the following inhibition assay was used. Uterine nuclei were prepared from estrogen-implanted, adult-ovariectomizedrats. The washed nuclear pellet was diluted to 10 mg of fresh uterine equivalents/ml. At this concentration the effects of the endogenous inhibitor were minimal, and nuclear Type II sites bound maximum quantities of [^3 H]estradiol. Aliquots of these nuclei and the inhibitor sample were incubated at about 4° C. for approximately 60 min in the presence of 40 nM of [^3 H]estradiol with and without 12 μM diethylstilbestrol. Under these conditions, nuclear Type II sites were quantitatively measured without interference from Type I sites. The nuclear pellets were resuspended in 1 ml of 10 mM Tris-1.5 mM EDTA and centrifuged, ethanol extracted, and counted. The results were expressed as the percentage of [^3 H]estradiol bound as compared to the buffer control, or as the percentage of inhibition where 100% bound was 0% inhibition and was equivalent to approximately 45,000 cpm.
Thus, more nuclear Type II sites are measured in dilute than in concentrated nuclei. […] The uterine nuclei were prepared as previously described in Markaverich, B. M. et al., J. Biol. Chem. 258:11663-11671 (1983), the disclosure of which is herein incorporated by reference. Briefly, uterine nuclei after preparation were diluted in 10 mM Tris, 1.5 mM EDTA buffer in final volumes equivalent to 10, 20 or 40 mg fresh uterine equivalents per ml, and assayed for estrogen binding sites by [^3 H]estradiol exchange at 37° C. for 30 minutes. Specific binding was determined by subtraction of non-specific binding, i.e., non-competable with 300-fold excess diethylstilbestrol, from the total quantity of [^3 H]estradiol bound. […] Briefly, acid-precipitated, boiled cytosol from rat uterus, mouse mammary tumor and normal mouse mammary gland was diluted as shown on FIG. 2 and evaluated for inhibitor activity. […]

[4] = tested on: estradiol stimulation of uterine growth (rat uterus); test: Uterotropic assay: block of estradiol stimulation of uterine growth in immature female rats; format: in vivo; conditions: for GROWTH INHIBITION (%): 10 μg compound, block of estradiol stimulation in the rat uterotropic assay; for block of estradiol stimulation of uterine growth (in words): immature rat, FIGS. 14, 15
Description: The rat uterus is exquisitively sensitive to estrogen, and this hormone stimulates uterine cellular hypertrophy, hyperplasia and DNA synthesis within 24 hours following a single injection. Estradiol stimulation of nuclear Type II sites is a prerequisite for these responses. This assay includes injecting immature female rats with saline-ethanol vehicle, estradiol-17β and the test compound of interest. Control rats were injected only with saline-ethanol vehicle and estradiol-17β. The rats were sacrificed 24 hours later and the uterine wet and dry weights were determined. The wet and dry weight measurements are well defined biochemical end points of estrogen action and are a direct index of changes in cell proliferation and DNA synthesis.
estradiol stimulation in the rat uterotropic assay.

[5] = tested on: cell growth and proliferation in normal and malignant cells; test: Cell growth / tumor proliferation inhibition (general statement); format: cell-based
esterase = test: Stability to esterase cleavage; format: in vitro ADME
[6] = tested on: MCF-7 human breast cancer cells; test: MCF-7 cancer cell assay; format: cell-based; conditions: FIG. 12; 1-10 μg/ml, 6 days
Description: To assay for tumor growth sensitivity the MCF-7 human breast cancer cell line in tissue culture was used. One skilled in the art will recognize that this is an excellent model system to assess the effects of hormones and drugs on human cancer cell growth and proliferation. The MCF-7 cells have both Type I and nuclear Type II estrogen receptor sites and respond in a proliferative fashion to estrogenic hormones. Furthermore, they are inhibited by well-known anti-estrogens such as Tamoxifen. The MCF-7 cells were plated at 5×10^5 cells/dish in 30 mm petri dishes and grown in Dulbecco's Modified Eagles Medium containing about 10% charcoal stripped fetal bovine serum for approximately 48 hours. During this interval, the cells attached to the plastic dishes and then underwent exponential growth with a cell-doubling time of approximately 24 hours. The plated cells were allowed to attach for approximately 48 hours and the medium was replaced ("day zero"). The cells were allowed to grow exponentially for about 6 days. […] On day 6 the cells were harvested, counted on a hemocytometer and DNA content per dish was determined by the Burton assay (Burton, K., Biochem. J. 62:315-323, 1956). Results are expressed as cells/dish or DNA content (μg/dish) at 6 days following treatment. […]

malignant (tumor) cells = test: Metabolism / inactivation by malignant cells; format: in vitro ADME
[7] = listed as methyl p-hydroxyphenyllactate

In the case of `CC/C(=C(\c1ccccc1)c1ccc(OCCN(C)C)cc1)c1ccccc1` [Tamoxifen], the “inhibition of MCF-7 cells by known anti-estrogens” value [1] is given as “inhibited”.

In the case of `CC(=O)[C@H]1CC[C@H]2[C@@H]3CCC4=CC(=O)CC[C@]4(C)[C@H]3CC[C@]12C` [progesterone], the “inhibition of nuclear Type II sites associated with antagonism of uterotropic responses to estrogen” value (from here on “inhibition … to estrogen”) [2] is listed as “associated with antagonism of uterotropic responses to estrogen”.

For `CCN(CC)CCOc1ccc(C(=C(Cl)c2ccccc2)c2ccccc2)cc1` [clomiphene], the “inhibition … to estrogen” value [2] is given as “associated with antagonism of uterotropic responses to estrogen”.

In the case of `COC(=O)COc1ccc(O)cc1` [methyl (4-hydroxyphenoxy) acetate, methyl (4-hydroxyphenoxy)acetate], the IC50 [3] is reported as 80 nM and the “GROWTH INHIBITION (%)” value [4] is reported as 70%.

With `COC(=O)C=Cc1ccc(O)c(OC)c1` [methyl 3-(4-hydroxy-3-methoxyphenyl)-2-propenoate] the IC50 [3] was 600 nM and the “GROWTH INHIBITION (%)” value [4] was 56%.

In the case of `CC(=O)CCc1ccc(O)cc1` [1-(4-hydroxyphenyl)-3-butanone], the “binding to / inhibition of nuclear Type II sites (in words)” value (shortened to “binding to / inhibition”) [3] is reported as “bind to Type II sites; also recorded: binds to the nuclear Type II sites with a high affinity”, the IC50 [3] is reported as 200 nM and the “GROWTH INHIBITION (%)” value [4] is reported as 96%. For the same compound, the “block of estradiol stimulation of uterine growth (in words)” value (“block” for short) [4] was “antitumor proliferative activity in the uterotropic assay; also recorded: blocks estradiol stimulation of uterine growth when injected into immature rats”, the “inhibition in culture and in vivo relative to MeHPLA (in words)” value ([5]; culture and in vivo) was “a better inhibitor in culture and in vivo” and the “stability (in words)” value (esterase) was “not subject to the esterase cleavage; also recorded: more stable”.

With `O=C(O)C(O)Cc1ccc(O)cc1` (centres unmarked) [3-(4-hydroxyphenyl)-2-hydroxypropionic acid, reference compound] the “binding to / inhibition” value [3] was “low binding affinity for nuclear Type II sites”, the IC50 [3] was 8000 nM and the “fold lower affinity for nuclear Type II sites than methyl p-hydroxyphenyllactate” value ([3]; vs MeHPLA) was 20 fold. The “inhibition of MCF-7 human breast cancer cells” value [6] was “did not”, the “GROWTH INHIBITION (%)” value [4] was 0% and the “block” value ([4]; listed as hydroxyphenyllactic acid) was “higher doses of hydroxyphenyllactic acid showed some partial antagonism; also recorded: but not hydroxyphenyllactic acid”. The “cell growth inhibition / antitumor activity (in words)” value [5] was “inhibits the cell growth much less effectively”.

For `C[C@@H]1C[C@H]2[C@@H]3CCC4=CC(=O)C=C[C@]4(C)[C@@]3(F)[C@@H](O)C[C@]2(C)[C@@]1(O)C(=O)CO` [dexamethasone], the “inhibition … to estrogen” value [2] is listed as “associated with antagonism of uterotropic responses to estrogen”.

For `COc1ccc2c(c1)CCC(c1ccccc1)=C2c1ccc(OCCN2CCCC2)cc1` [nafoxidine], the “inhibition … to estrogen” value [2] is listed as “associated with antagonism of uterotropic responses to estrogen”.

With `CCC(=O)CCc1ccc(O)cc1` [1-(4-hydroxyphenyl)-3-pentanone] the “binding to / inhibition” value [3] was “bind to Type II sites” and the “block” value [4] was “antitumor proliferative activity in the uterotropic assay”.

In the case of `COC(=O)C=Cc1ccc(O)c(O)c1` [methyl 3-(3,4-dihydroxyphenyl)-2-propenoate], the IC50 [3] is reported as 100 nM and the “GROWTH INHIBITION (%)” value [4] is reported as 70%.

In the case of `COC(=O)C(O)Cc1ccc(O)cc1` (centres unmarked) [methyl 3-(4-hydroxyphenyl)-2-hydroxypropionate], the “metabolism / inactivation by malignant cells (in words)” value (malignant (tumor) cells; listed as MeHPLA) is reported as “malignant cells metabolize MeHPLA”, the “metabolism / inactivation by malignant cells (in words)” value (malignant (tumor) cells; [7]) is reported as “tumor cells have the ability to inactivate methyl p-hydroxyphenyllactate” and the IC50 [3] is reported as 80 nM. The “fold more effective in inhibiting [3H]estradiol binding to nuclear Type II sites than the free acid (HPLA)” value ([3]; competition analysis, FIGS. 8 and 9, vs HPLA) was “approximately 20 fold”, the “inhibition of MCF-7 human breast cancer cells” value [6] was “inhibited MCF-7 breast cancer cells in a similar dose-dependent fashion” and the “GROWTH INHIBITION (%)” value [4] was 90%. The “block” value ([4]; listed as MeHPLA) was “block estrogen stimulation of normal cell growth such as that in the rat uterus”, the “block” value [4, 7] was “block estradiol stimulation of uterine growth in the immature rat” and the “cell growth inhibition / antitumor activity (in words)” value ([5]; listed as MeHPLA) was “cell growth and proliferation are inhibited; also recorded: cell growth and proliferation of non-malignant tissues are slowed down or stopped”.
